Data from patent US20120277209A1, “PYRAZINE COMPOUNDS AS PHOSPHODIESTERASE 10 INHIBITORS” (Amgen Inc., priority 2009, published 2012).

Molecular target: PDE10 (UniProt Q9Y233)
Assay: PDE10 enzyme inhibition, IMAP TR-FRET assay (MPDE10A7 Enzyme Activity and Inhibition)
Type: biochemical
Settings: IC50 class against PDE10; read-out: IC50
In short: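 PDE10A enzyme or tissue homogenate preincubated with compounds 30 min at room temperature, then fluorescein-labelled cAMP or cGMP added for 60 min. IMAP binding reagent stop, TR-FRET read. Values are mean IC50s, grouped into five potency classes.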

Q: How did the IC50 turn out when CC(=O)N1CCC(c2nccnc2Oc2ccc(C(O)c3nc4ccccc4[nH]3)cc2)CC1 (stereo not shown) [Example 228, 1-(4-(3-(4-((1H-benzo[d]imidazol-2-yl)(hydroxy)methyl)phenoxy)pyrazin-2-yl)piperidin-1-yl)ethanone] was run?
A: < 25 nM

Q: How did the IC50 turn out when COC1CCN(c2nccnc2Oc2ccc(Nc3nc4ccccc4s3)cc2)CC1 [Example 92, N-(4-(3-(4-methoxypiperidin-1-yl)pyrazin-2-yloxy)phenyl)-benzo[d]thiazol-2-amine] was run?
A: < 25 nM

Q: COc1cc(-c2nccnc2Oc2ccc(Nc3nc4ccccc4s3)cc2)ccn1 [Example 152, N-(4-(3-(2-methoxypyridin-4-yl)pyrazin-2-yloxy)phenyl)benzo[d]thiazol-2-amine] was tested. Which IC50 did it give?
A: < 25 nM

Q: With FC(F)(c1ccc(Oc2nccnc2N2CCOCC2)cc1)c1nc2ccccc2[nH]1 [Example 7, 4-(3-(4-((1H-BENZO[D]IMIDAZOL-2-YL)DIFLUOROMETHYL)PHENOXY)PYRAZIN-2-YL)MORPHOLINE] as the compound, how does the IC50 read?
A: 100 to 250 nM

Q: Which IC50 does the source give for CC(=O)OCC(=O)N1CCC(c2nccnc2Oc2ccc(C(=O)c3nc4ccccc4[nH]3)cc2)CC1 [Example 244, 2-(4-(3-(4-(1H-benzo[d]imidazole-2-carbonyl)phenoxy)pyrazin-2-yl)piperidin-1-yl)-2-oxoethyl acetate] here?
A: < 25 nM

Q: With COc1ccc(-c2nccnc2Oc2ccc(C(=O)c3nc4ccccc4[nH]3)cc2)cn1 [Example 121, (1H-benzo[d]imidazol-2-yl)(4-(3-(6-methoxypyridin-3-yl)pyrazin-2-yloxy)phenyl)methanone] as the compound, how does the IC50 read?
A: < 25 nM

Q: Which IC50 does the source give for CC(C)(C)OC(=O)N1CCC(CO)(c2nccnc2Oc2ccc(Nc3nc4ccccc4s3)cc2)CC1 [Example 206, tert-butyl 4-(3-(4-(benzo[d]thiazol-2-ylamino)phenoxy)pyrazin-2-yl)-4-(hydroxymethyl)piperidine-1-carboxylate] here?
A: 25 to 100 nM

Q: COCC1CCN(c2nccnc2Oc2ccc(Nc3nc4ccccc4s3)cc2)C1 (racemic) [Example 88, N-(4-(3-(3-(methoxymethyl)-pyrrolidin-1-yl)pyrazin-2-yl-oxy)phenyl)benzo[d]thiazol-2-amine] was tested. Which IC50 did it give?
A: < 25 nM

Q: Which IC50 does the source give for COc1ncccc1-c1nccnc1Oc1ccc(C(=O)c2nc3ccccc3n2CCF)cc1 [Example 134, (1-(2-fluoroethyl)-1H-benzo[d]imidazol-2-yl)(4-(3-(2-methoxypyridin-3-yl)pyrazin-2-yloxy)phenyl)methanone] here?
A: < 25 nM

Q: How did the IC50 turn out when Fc1cc(-c2nccnc2Oc2ccc(Nc3nc4ccccc4s3)c(F)c2)ccn1 [Example 158, N-(2-fluoro-4-(3-(2-fluoropyridin-4-yl)pyrazin-2-yloxy)phenyl)benzo[d]thiazol-2-amine] was run?
A: 25 to 100 nM

Q: COc1ncccc1-c1nccnc1Oc1ccc(Nc2nc3ccccc3s2)cc1 [Example 155, N-(4-(3-(2-methoxypyridin-3-yl)pyrazin-2-yloxy)phenyl)benzo[d]thiazol-2-amine] was tested. Which IC50 did it give?
A: < 25 nM

Q: O=C(c1ccc(Oc2nccnc2C(=O)NC2(Cc3ccccc3)CC2)cc1)c1nc2ccccc2[nH]1 [Example 260, 3-(4-(1H-benzo[d]imidazole-2-carbonyl)phenoxy)-N-(1-benzylcyclopropyl) pyrazine-2-carboxamide] was tested. Which IC50 did it give?
A: < 25 nM

Q: c1ccc2sc(Nc3ccc(Oc4nccnc4NC4CCCOC4)cc3)nc2c1 (stereo not shown) [Example 58, N-(4-(3-(TETRAHYDRO-2H-PYRAN-3-YLAMINO)PYRAZIN-2-YLOXY)PHENYL)BENZO[D]THIAZOL-2-AMINE] was tested. Which IC50 did it give?
A: 25 to 100 nM

Q: Which IC50 does the source give for O=C(c1ccc(Oc2nccnc2C2(O)CCOCC2)cc1)c1nc2ccccc2[nH]1 [Example 213, (1H-benzo[d]imidazol-2-yl)(4-(3-(4-hydroxytetrahydro-2H-pyran-4-yl)pyrazin-2-yloxy)phenyl)methanone] here?
A: < 25 nM

Q: Which IC50 does the source give for O=C(c1ccc(Oc2nccnc2C(=O)NCCc2ccccc2)cc1)c1nc2ccccc2[nH]1 [Example 254, 3-(4-(1H-benzo[d]imidazole-2-carbonyl)phenoxy)-N-phenethylpyrazine-2-carboxamide] here?
A: < 25 nM

Q: c1ccc2sc(Nc3ccc(Oc4nccnc4N4CCCC4)cc3)nc2c1 [Example 68, N-(4-(3-(pyrrolidin-1-yl)pyrazin-2-yloxy)phenyl)benzo[d]thiazol-2-amine] was tested. Which IC50 did it give?
A: 25 to 100 nM

Q: With Cc1nc2c([nH]1)CCN(c1nccnc1Oc1ccc(Nc3nc4ccccc4s3)cc1)C2 [Example 82, N-(4-(3-(2-methyl-6,7-dihydro-1H-imidazo[4,5-c]pyridin-5(4H)-yl)pyrazin-2-yloxy)phenyl)benzo-[d]thiazol-2-amine] as the compound, how does the IC50 read?
A: 100 to 250 nM

Q: Which IC50 does the source give for CC(F)C(=O)N1CCC(c2nccnc2Oc2ccc(Nc3nc4ccccc4s3)cc2)CC1 (stereo not shown) [Example 235, 1-(4-(3-(4-(benzo[d]thiazol-2-ylamino)phenoxy)pyrazin-2-yl)piperidin-1-yl)-2-fluoropropan-1-one] here?
A: < 25 nM

Q: Which IC50 does the source give for O=C(c1ccc(Oc2nccnc2C(=O)NCCc2ccccn2)cc1)c1nc2ccccc2[nH]1 [Example 257, 3-(4-(1H-benzo[d]imidazole-2-carbonyl)phenoxy)-N-(2-(pyridin-2-yl)ethyl)pyrazine-2-carboxamide] here?
A: < 25 nM

Q: c1ccc2[nH]c(Nc3ccc(Oc4nccnc4C4CCOCC4)cc3)nc2c1 [Example 207, N-(4-(3-(tetrahydro-2H-pyran-4-yl)pyrazin-2-yloxy)phenyl)-1H-benzo[d]imidazol-2-amine] was tested. Which IC50 did it give?
A: < 25 nM

Q: COc1ncccc1-c1nccnc1Oc1ccc(Nc2nc3cccc(F)c3s2)cc1 [Example 151, 7-fluoro-N-(4-(3-(2-methoxypyridin-3-yl)pyrazin-2-yloxy)phenyl)benzo[d]thiazol-2-amine] was tested. Which IC50 did it give?
A: 25 to 100 nM

Q: Which IC50 does the source give for OC1C=C(c2nccnc2Oc2ccc(Nc3nc4ccccc4s3)c(F)c2)CCC1 (racemic) [Example 137, (rac)-3-(3-(4-(benzo[d]thiazol-2-ylamino)-3-fluorophenoxy)pyrazin-2-yl)cyclohex-2-enol] here?
A: < 25 nM

Q: How did the IC50 turn out when Fc1cc(Oc2nccnc2C2CCOCC2)ccc1Nc1nc2ccccc2s1 [Example 215, N-(2-fluoro-4-(3-(terahydro-2H-pyran-4-yl)pyrazin-2-yloxy)phenyl)benzo[d]thiazol-2-amine] was run?
A: < 25 nM

Q: For CN1CCCC1CCOc1nccnc1Oc1ccc(C(=O)c2nc3ccccc3[nH]2)cc1 (stereo not shown) [Example 175], which IC50 is on record?
A: 100 to 250 nM

Same assay, conditions: PDE10 enzyme inhibition; average IC50 data for each compound; read-out: Average IC50

Q: For Fc1cccc2nc(Nc3ccc(Oc4cnccn4)cc3)sc12 [drawing 880], which IC50 is on record?
A: 803 nM

Q: Which IC50 does the source give for C[C@H](F)C(=O)N1CCC(c2nccnc2Oc2ccc(Nc3nc4ccccc4s3)cc2)CC1 [drawing 979] here?
A: 0.156 nM

Q: FC(F)(c1ccc(Oc2nccnc2C2CCOCC2)cc1)c1nc2ccccc2[nH]1 was tested. Which IC50 did it give?
A: 52.9 nM

Q: How did the IC50 turn out when COC(=O)N1CCC(c2nccnc2Oc2ccc(Nc3nc4ccccc4s3)cc2)CC1 was run?
A: 0.206 nM

Q: Which IC50 does the source give for Fc1ccc2nc(Nc3ccc(Oc4nccnc4Cl)cc3)sc2c1 [drawing 833] here?
A: 538 nM

Q: For O=C(c1ccc(Oc2nccnc2C2CCOCC2)cc1)c1nc2ccccc2[nH]1 [drawing 752], which IC50 is on record?
A: 0.486 nM

Q: Which IC50 does the source give for OCCC1CCN(c2nccnc2Oc2ccc(Nc3nc4ccccc4s3)cc2)CC1 [drawing 735] here?
A: 9.55 nM

Q: For O=C(c1ccc(Oc2nccnc2-c2cccc3ncccc23)cc1)c1nc2ccccc2[nH]1 [drawing 803], which IC50 is on record?
A: 3.18 nM

Q: With O=C(c1ccc(Oc2nccnc2OCCCc2cccnc2)cc1)c1nc2ccccc2[nH]1 [drawing 861] as the compound, how does the IC50 read?
A: 10.9 nM

Q: With O=C(c1ccc(Oc2nccnc2Cl)cc1)c1nc2ncccc2[nH]1 as the compound, how does the IC50 read?
A: 171 nM

Q: OCc1ccc(-c2nccnc2Oc2ccc(Nc3nc4ccccc4s3)cc2)cn1 [drawing 804] was tested. Which IC50 did it give?
A: 4.12 nM

Q: Which IC50 does the source give for OC[C@@H]1CCN(c2nccnc2Oc2ccc(Nc3nc4ccccc4s3)cc2)C1 [drawing 732] here?
A: 2.89 nM

Q: O=C(c1ccc(Oc2nccnc2[C@H]2CC[C@@H](O)CC2)cc1)c1nc2ccccc2[nH]1 [drawing 900] was tested. Which IC50 did it give?
A: 1.36 nM

Q: With CCOC(=O)C1CCN(c2nccnc2Oc2ccc(C(=O)c3nc4ccccc4[nH]3)cc2)CC1 as the compound, how does the IC50 read?
A: 5.19 nM

Q: With CC(=O)N1CC[C@@H](c2nccnc2Oc2ccc(C(=O)c3nc4ccccc4[nH]3)cc2)C1 (stereo in doubt) as the compound, how does the IC50 read?
A: 7.63 nM

Q: With O=C(c1ccc(Oc2nccnc2OCCN2CCOCC2)cc1)c1nc2ccccc2[nH]1 [drawing 855] as the compound, how does the IC50 read?
A: 89.5 nM

Q: For O=C(c1ccc(Oc2nccnc2[C@H]2CC[C@@H](O)CC2)cc1)c1nc2ccccc2[nH]1 [drawing 797], which IC50 is on record?
A: 1.04 nM

Q: How did the IC50 turn out when Cn1c(C(=O)c2ccc(Oc3nccnc3C3CCOCC3)cc2)nc2ccccc21 [drawing 874] was run?
A: 1.31 nM

Q: Which IC50 does the source give for CC(C)(C)OC(=O)N1CC=C(c2nccnc2Oc2ccc(Nc3nc4ccccc4s3)c(F)c2)CC1 [drawing 983] here?
A: 70 nM

Q: How did the IC50 turn out when COc1ncccc1-c1nccnc1Oc1ccc(Nc2nc3ccc(F)cc3s2)cc1 [drawing 959] was run?
A: 7.2 nM

Q: O=C(c1ccc(Oc2nccnc2OCCN2CCCC2)cc1)c1nc2ccccc2[nH]1 [drawing 856] was tested. Which IC50 did it give?
A: 541 nM

Q: Which IC50 does the source give for O=C1CCCC(c2nccnc2Oc2ccc(C(=O)c3nc4ccccc4[nH]3)cc2)C1 (stereo not shown) here?
A: 1.33 nM

Q: O[C@@H]1CCC[C@@H](c2nccnc2Oc2ccc(Nc3nc4ccccc4s3)cc2)C1 [drawing 912] was tested. Which IC50 did it give?
A: 2.54 nM

Q: How did the IC50 turn out when COc1cnccc1-c1nccnc1Oc1ccc(Nc2nc3ccccc3s2)cc1 [drawing 961] was run?
A: 1.91 nM

Q: With O=C1CCCC(c2nccnc2Oc2ccc(Nc3nc4ccccc4s3)cc2)C1 (stereo not shown) as the compound, how does the IC50 read?
A: 1.21 nM

Q: N#CCC(=O)N1CCC(c2nccnc2Oc2ccc(C(=O)c3nc4ccccc4[nH]3)cc2)CC1 [drawing 997] was tested. Which IC50 did it give?
A: 0.025 nM

Q: For O=C(c1ccc(Oc2nccnc2C(=O)NCCO)cc1)c1nc2ccccc2[nH]1 [drawing 817], which IC50 is on record?
A: 65.5 nM

Q: How did the IC50 turn out when CC(=O)OCC(=O)N1CCC(c2nccnc2Oc2ccc(C(=O)c3nc4ccccc4[nH]3)cc2)CC1 [drawing 991] was run?
A: 0.0175 nM

Q: With COC(=O)[C@H]1CCN(c2nccnc2Oc2ccc(C(=O)c3nc4ccccc4[nH]3)cc2)C1 [drawing 837] as the compound, how does the IC50 read?
A: 4.21 nM

Q: With O=C(c1ccc(Oc2nccnc2N2CC[C@@H](O)C2)cc1)c1nc2ccccc2[nH]1 (stereo in doubt) as the compound, how does the IC50 read?
A: 7.6 nM

Same assay, conditions: PDE10 enzyme inhibition; chiral compounds separated from racemic mixtures; read-out: IC50

Q: For O=C1CCC[C@@H](c2nccnc2Oc2ccc(Nc3nc4ccccc4s3)cc2)C1 [Example 281, (R)-3-(3-(4-(benzo[d]thiazol-2-ylamino)phenoxy)pyrazin-2-yl)cyclohexanone], which IC50 is on record?
A: < 25 nM
